# Source: PubChem BioAssay AID1918935 (Molecular Pharmacology Branch, DTP, NCI, 2023)
# Test system: 324938-238-R-J1-PDC complex spheroid viability
# Assay: Anticancer human tumor 324938-238-R-J1-PDC patient-derived bladder carcinoma cell line growth inhibition
# Conditions: for IC50: curve of first compound; for viability, T/C: stronger effect = lower value
# Procedure, shortened: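 Multicellular complex spheroids of tumor cells with human endothelial cells (HUVEC) and mesenchymal stem cells; the LSD1 inhibitor iadademstat was combined with standard-of-care or investigational agents. Top concentration at or near clinical Cmax, half-log dilutions; final DMSO ≤0.25%.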
# [1] = second compound 0.1 µM, first compound 0.000949 µM
# [2] = second compound 0.1 µM, first compound 0.003 µM
# [3] = second compound 0.1 µM, first compound 0.00949 µM
# [4] = second compound 0.1 µM, first compound 0.03 µM
# [5] = second compound 0.1 µM, first compound 0.0949 µM
# [6] = second compound 0.1 µM, first compound 0.3 µM
# [7] = second compound 0.316 µM, first compound 0.000949 µM
# [8] = second compound 0.316 µM, first compound 0.003 µM
# [9] = second compound 0.316 µM, first compound 0.00949 µM
# [10] = second compound 0.316 µM, first compound 0.03 µM
# [11] = second compound 0.316 µM, first compound 0.0949 µM
# [12] = second compound 0.316 µM, first compound 0.3 µM
# [13] = second compound 1 µM, first compound 0.000949 µM
# [14] = second compound 1 µM, first compound 0.003 µM
# [15] = second compound 1 µM, first compound 0.00949 µM
# [16] = second compound 1 µM, first compound 0.03 µM
# [17] = second compound 1 µM, first compound 0.0949 µM
# [18] = second compound 1 µM, first compound 0.3 µM
# [19] = second compound 3.16 µM, first compound 0.000949 µM
# [20] = second compound 3.16 µM, first compound 0.003 µM
# [21] = second compound 3.16 µM, first compound 0.00949 µM
# [22] = second compound 3.16 µM, first compound 0.03 µM
# [23] = second compound 3.16 µM, first compound 0.0949 µM
# [24] = second compound 3.16 µM, first compound 0.3 µM
# [25] = second compound 10 µM, first compound 0.000949 µM
# [26] = second compound 10 µM, first compound 0.003 µM
# [27] = second compound 10 µM, first compound 0.00949 µM
# [28] = second compound 10 µM, first compound 0.03 µM
# [29] = second compound 10 µM, first compound 0.0949 µM
# [30] = second compound 10 µM, first compound 0.3 µM
# 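Also: spheroids also contain HUVEC and human MSCs and agents combined with iadademstat; spheroids exposed to agents for 7 days before readout.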
compound,measurement,setting,value
CC[C@@]1(O)C(=O)OCc2c1cc1n(c2=O)Cc2cc3c(CN(C)C)c(O)ccc3nc2-1 + NC1CC1c1ccc(-c2cccc(O)c2)cc1,IC50,second compound 0.1 µM,1.32 nM
same,IC50,second compound 0.316 µM,1.13 nM
same,IC50,second compound 1 µM,1.38 nM
same,IC50,second compound 3.16 µM,1.22 nM
same,IC50,second compound 10 µM,1.17 nM
same,"viability, T/C","second compound 0.1 µM, first compound 0.000316 µM",82.5%
same,"viability, T/C","second compound 0.1 µM, first compound 0.001 µM",57%
same,"viability, T/C","second compound 0.1 µM, first compound 0.00316 µM",27%
same,"viability, T/C","second compound 0.1 µM, first compound 0.01 µM",7.09%
same,"viability, T/C","second compound 0.1 µM, first compound 0.0316 µM",7.47%
same,"viability, T/C","second compound 0.1 µM, first compound 0.1 µM",8.37%
same,"viability, T/C","second compound 0.316 µM, first compound 0.000316 µM",68.2%
same,"viability, T/C","second compound 0.316 µM, first compound 0.001 µM",52.5%
same,"viability, T/C","second compound 0.316 µM, first compound 0.00316 µM",25.4%
same,"viability, T/C","second compound 0.316 µM, first compound 0.01 µM",6.5%
same,"viability, T/C","second compound 0.316 µM, first compound 0.0316 µM",7.53%
same,"viability, T/C","second compound 0.316 µM, first compound 0.1 µM",6.02%
same,"viability, T/C","second compound 1 µM, first compound 0.000316 µM",67.8%
same,"viability, T/C","second compound 1 µM, first compound 0.001 µM",58.2%
same,"viability, T/C","second compound 1 µM, first compound 0.00316 µM",27.7%
same,"viability, T/C","second compound 1 µM, first compound 0.01 µM",6.31%
same,"viability, T/C","second compound 1 µM, first compound 0.0316 µM",6.22%
same,"viability, T/C","second compound 1 µM, first compound 0.1 µM",8.13%
same,"viability, T/C","second compound 3.16 µM, first compound 0.000316 µM",69.7%
same,"viability, T/C","second compound 3.16 µM, first compound 0.001 µM",53.6%
same,"viability, T/C","second compound 3.16 µM, first compound 0.00316 µM",28.6%
same,"viability, T/C","second compound 3.16 µM, first compound 0.01 µM",7%
same,"viability, T/C","second compound 3.16 µM, first compound 0.0316 µM",5.72%
same,"viability, T/C","second compound 3.16 µM, first compound 0.1 µM",6.54%
same,"viability, T/C","second compound 10 µM, first compound 0.000316 µM",66.1%
same,"viability, T/C","second compound 10 µM, first compound 0.001 µM",52.7%
same,"viability, T/C","second compound 10 µM, first compound 0.00316 µM",28.8%
same,"viability, T/C","second compound 10 µM, first compound 0.01 µM",10.2%
same,"viability, T/C","second compound 10 µM, first compound 0.0316 µM",8.64%
same,"viability, T/C","second compound 10 µM, first compound 0.1 µM",9.59%
CCc1c2c(nc3ccc(O)cc13)-c1cc3c(c(=O)n1C2)COC(=O)[C@]3(O)CC + NC1CC1c1ccc(-c2cccc(O)c2)cc1,IC50,second compound 0.1 µM,< 0.949 nM
same,IC50,second compound 0.316 µM,< 0.949 nM
same,IC50,second compound 1 µM,< 0.949 nM
same,IC50,second compound 3.16 µM,< 0.949 nM
same,IC50,second compound 10 µM,< 0.949 nM
same,"viability, T/C",[1],8.63%
same,"viability, T/C",[2],8.28%
same,"viability, T/C",[3],6.38%
same,"viability, T/C",[4],2.62%
same,"viability, T/C",[5],1.19%
same,"viability, T/C",[6],0.47%
same,"viability, T/C",[7],7.65%
same,"viability, T/C",[8],7.41%
same,"viability, T/C",[9],5.98%
same,"viability, T/C",[10],2.79%
same,"viability, T/C",[11],0.46%
same,"viability, T/C",[12],0.55%
same,"viability, T/C",[13],6.57%
same,"viability, T/C",[14],8.14%
same,"viability, T/C",[15],6.37%
same,"viability, T/C",[16],1.95%
same,"viability, T/C",[17],0.51%
same,"viability, T/C",[18],0.15%
same,"viability, T/C",[19],6.75%
same,"viability, T/C",[20],6.96%
same,"viability, T/C",[21],6.25%
same,"viability, T/C",[22],2.46%
same,"viability, T/C",[23],0.53%
same,"viability, T/C",[24],0.31%
same,"viability, T/C",[25],10.5%
same,"viability, T/C",[26],9.76%
same,"viability, T/C",[27],7.12%
same,"viability, T/C",[28],2.62%
same,"viability, T/C",[29],0.17%
same,"viability, T/C",[30],0.23%
Nc1ccn(C2OC(CO)C(O)C2(F)F)c(=O)n1 (stereo not given) + NC1CC1c1ccc(-c2cccc(O)c2)cc1,IC50,second compound 0.1 µM,< 0.949 nM
same,IC50,second compound 0.316 µM,< 0.949 nM
same,IC50,second compound 1 µM,< 0.949 nM
same,IC50,second compound 3.16 µM,< 0.949 nM
same,IC50,second compound 10 µM,< 0.949 nM
same,"viability, T/C",[1],11.1%
same,"viability, T/C",[2],8.09%
same,"viability, T/C",[3],6.87%
same,"viability, T/C",[4],6.29%
same,"viability, T/C",[5],6.35%
same,"viability, T/C",[6],5.04%
same,"viability, T/C",[7],10.9%
same,"viability, T/C",[8],7.27%
same,"viability, T/C",[9],5.74%
same,"viability, T/C",[10],5.98%
same,"viability, T/C",[11],5.39%
same,"viability, T/C",[12],5.59%
same,"viability, T/C",[13],11%
same,"viability, T/C",[14],7.32%
same,"viability, T/C",[15],5.8%
same,"viability, T/C",[16],6.74%
same,"viability, T/C",[17],5.16%
same,"viability, T/C",[18],4.64%
same,"viability, T/C",[19],10.4%
same,"viability, T/C",[20],6.79%
same,"viability, T/C",[21],7.61%
same,"viability, T/C",[22],5.95%
same,"viability, T/C",[23],5.45%
same,"viability, T/C",[24],5.23%
same,"viability, T/C",[25],15.8%
same,"viability, T/C",[26],11.2%
same,"viability, T/C",[27],10.4%
same,"viability, T/C",[28],7.49%
same,"viability, T/C",[29],5.31%
same,"viability, T/C",[30],5.65%
